Columns and labels:
P-4E-BP1 (T37/46) = assay: Cell based AlphaLISA assay, inhibition of P-4E-BP1 (T37/46) in MDA-MB-468 cells (mTORC1 substrate); conditions: AlphaLisa, two to four hours at 37° C.; for IC50: Homo sapiens, 4 h, read-out: pIC50 for Inhibition of mTORC1 and mTORC2 Substrate Phosphorylation P-4E-BP1-(T37/46) (converted)
Method: (§1) Cell Based AlphaLISA Assays For Determining IC50 For Inhibition of P-Akt (S473), P-4E-BP1(T37/46), and P-P70S6K (T389) in MDA-MB-468 Cells
(§2) mTOR Kinase Cellular Assay
(§3) To measure functional activity of mTORC1 and mTORC2 in cells the phosphorylation of 4EBPT (Thr37/46) and P70S6K (Thr389), and AKT1/2/3 (Ser473) was monitored using AlphaLisa SureFire Ultra Kits (Perkin Elmer). […] Incubations were terminated by removal of the assay buffer and addition of lysis buffer provided with the assay kit. Samples were processed according to the manufacturer's instructions. The Alpha signal from the respective phosphoproteinswas measured in duplicate using a microplate reader (Envision, Perkin-Elmer or Spectramax M5, Molecular Devices). Inhibitor concentration response curves were analyzed using normalized IC50 regression curve filling with control based normalization.

P-Akt (S473) = assay: Cell based AlphaLISA assay, inhibition of P-Akt (S473) in MDA-MB-468 cells (mTORC2 substrate); conditions: AlphaLisa, two to four hours at 37° C.; for IC50: Homo sapiens, 4 h, read-out: pIC50 for Inhibition of mTORC1 and mTORC2 Substrate Phosphorylation p-AKT1/2/3-(S473) (converted)
Method: as §1, §2, §3

P-P70S6K (T389) = assay: Cell based AlphaLISA assay, inhibition of P-P70S6K (T389) in MDA-MB-468 cells (mTORC1 substrate); conditions: AlphaLisa, two to four hours at 37° C.; for IC50: Homo sapiens, 4 h, read-out: pIC50 for Inhibition of mTORC1 and mTORC2 Substrate Phosphorylation p-P70S6K-(T389) (converted)
Method: as §1, §2, §3

| Compound | pIC50 for Inhibition of mTORC1 and mTORC2 Substrate Phosphorylation P-4E-BP1-(T37/46) (P-4E-BP1 (T37/46)) | pIC50 for Inhibition of mTORC1 and mTORC2 Substrate Phosphorylation p-AKT1/2/3-(S473) (P-Akt (S473)) | pIC50 for Inhibition of mTORC1 and mTORC2 Substrate Phosphorylation p-P70S6K-(T389) (P-P70S6K (T389)) | IC50 (P-4E-BP1 (T37/46)) | IC50 (P-Akt (S473)) | IC50 (P-P70S6K (T389)) |
| --- | --- | --- | --- | --- | --- | --- |
| CO[C@H]1C[C@@H]2CC[C@@H](C)[C@@](O)(O2)C(=O)C(=O)N2CCCC[C@H]2C(=O)O[C@H]([C@H](C)C[C@@H]2CC[C@@H](OC(=S)NCCOCCOCCOCCOCCOCCOCCOCCOCCC(=O)N3CCc4cc(Cn5nc(-c6ccc7oc(N)nc7c6)c6c(N)ncnc65)ccc4C3)[C@H](OC)C2)C[C@@H](O)[C@H](C)/C=C(\C)[C@@H](O)[C@@H](OC)C(=O)[C@H](C)C[C@H](C)/C=C/C=C/C=C/1C [Example 77] | ++ (8.5 > pIC50 ≥ 7.5) | + (7.5 > pIC50 ≥ 6.0) | +++ (≥9) |  |  |  |
| CO[C@H]1C[C@@H]2CC[C@@H](C)[C@@](O)(O2)C(=O)C(=O)N2CCCC[C@H]2C(=O)O[C@H]([C@H](C)C[C@@H]2CC[C@@H](OC(=S)NCCOCCOCCOCCOCCOCCOCCOCCOCCC(=O)N3CCc4cc(Cn5nc(-c6ccc7oc(N)nc7c6)c6c(N)ncnc65)ccc4C3)[C@H](OC)C2)C[C@@H](OC)[C@H](C)/C=C(\C)[C@@H](O)[C@@H](OC)C(=O)[C@H](C)C[C@H](C)/C=C/C=C/C=C/1C [Example 78] | +++ (≥8.5) | +++ (≥8.5) | +++ (≥9) |  |  |  |
| CO[C@H]1C[C@@H]2CC[C@@H](C)[C@@](O)(O2)C(=O)C(=O)N2CCCC[C@H]2C(=O)O[C@H]([C@H](C)C[C@@H]2CC[C@@H](OC(=O)NCCOCCOCCOCCOCCOCCOCCOCCOCCC(=O)NCc3ccc(Cn4nc(-c5ccc6oc(N)nc6c5)c5c(N)ncnc54)cc3)[C@H](OC)C2)CC(=O)[C@H](C)/C=C(\C)[C@@H](O)[C@@H](OC)C(=O)[C@H](C)C[C@H](C)/C=C/C=C/C=C/1C [Example 79] | +++ (≥8.5) | + (7.5 > pIC50 ≥ 6.0) | +++ (≥9) |  |  |  |
| CO[C@H]1C[C@@H]2CC[C@@H](C)[C@@](O)(O2)C(=O)C(=O)N2CCCC[C@H]2C(=O)O[C@H]([C@H](C)C[C@@H]2CC[C@@H](OC(=O)NCCOCCOCCOCCOCCOCCOCCOCCOCCC(=O)NCc3ccc(Cn4nc(-c5ccc6oc(N)nc6c5)c5c(N)ncnc54)cc3)[C@H](OC)C2)C[C@@H](OC)[C@H](C)/C=C(\C)[C@@H](O)[C@@H](OC)C(=O)[C@H](C)C[C@H](C)/C=C/C=C/C=C/1C [Example 81] | ++ (8.5 > pIC50 ≥ 7.5) | − (<6) | +++ (≥9) |  |  |  |
| CO[C@H]1C[C@@H]2CC[C@@H](C)[C@@](O)(O2)C(=O)C(=O)N2CCCC[C@H]2C(=O)O[C@H]([C@H](C)C[C@@H]2CC[C@@H](OC(=O)NCCOCCOCCOCCOCCOCCOCCOCCOCCC(=O)NCc3ccc(Cn4nc(-c5ccc6oc(N)nc6c5)c5c(N)ncnc54)cc3)[C@H](OC)C2)C[C@H](N=[N+]=[N-])[C@H](C)/C=C(\C)[C@@H](O)[C@@H](OC)C(=O)[C@H](C)C[C@H](C)/C=C/C=C/C=C/1C [Example 82] | +++ (≥8.5) | − (<6) | +++ (≥9) |  |  |  |
| CO[C@H]1C[C@@H]2CC[C@@H](C)[C@@](O)(O2)C(=O)C(=O)N2CCCC[C@H]2C(=O)O[C@H]([C@H](C)C[C@@H]2CC[C@@H](OC(=S)NCCOCCOCCOCCOCCOCCOCCOCCOCCC(=O)NCc3ccc(Cn4nc(-c5ccc6oc(N)nc6c5)c5c(N)ncnc54)cc3)[C@H](OC)C2)C[C@@H](O)[C@H](C)/C=C(\C)[C@@H](O)[C@@H](OC)C(=O)[C@H](C)C[C@H](C)/C=C/C=C/C=C/1C [Example 83] | +++ (≥8.5) | ++ (8.5 > pIC50 ≥ 7.5) | +++ (≥9) |  |  |  |
| CO[C@H]1C[C@@H]2CC[C@@H](C)[C@@](O)(O2)C(=O)C(=O)N2CCCC[C@H]2C(=O)O[C@H]([C@H](C)C[C@@H]2CC[C@@H](OC(=O)NCc3cnc(N4CCN(c5ncc(C(=O)NCCOCCOCCOCCOCCC(=O)N6CCc7cc(Cn8nc(-c9cnc%10[nH]ccc%10c9)c9c(N)ncnc98)ccc7C6)cn5)CC4CO)nc3)[C@H](OC)C2)CC(=O)[C@H](C)/C=C(\C)[C@@H](O)[C@@H](OC)C(=O)[C@H](C)C[C@H](C)/C=C/C=C/C=C/1C (stereo partly drawn) [Example 86] |  |  |  | < 3.16 nM | 3.16 to 31.6 nM | < 1 nM |
| CO[C@H]1C[C@@H]2CC[C@@H](C)[C@@](O)(O2)C(=O)C(=O)N2CCCC[C@H]2C(=O)O[C@H]([C@H](C)C[C@@H]2CC[C@@H](OC(=O)NCc3cnc(N4CCN(C(=O)CN(C)CC(=O)NCCOCCOCCC(=O)N5CCc6cc(Cn7nc(-c8ccc9oc(N)nc9c8)c8c(N)ncnc87)ccc6C5)CC4)nc3)[C@H](OC)C2)CC(=O)[C@H](C)/C=C(\C)[C@@H](O)[C@@H](OC)C(=O)[C@H](C)C[C@H](C)/C=C/C=C/C=C/1C [Example 87] |  |  |  | < 3.16 nM | 3.16 to 31.6 nM | < 1 nM |
| CO[C@H]1C[C@@H]2CC[C@@H](C)[C@@](O)(O2)C(=O)C(=O)N2CCCC[C@H]2C(=O)O[C@H]([C@H](C)C[C@@H]2CC[C@@H](OC(=O)NCc3cnc(N4CCN(CCOCCOCCOCCOCCC(=O)N5CCc6cc(Cn7nc(-c8ccc9oc(N)nc9c8)c8c(N)ncnc87)ccc6C5)CC4)nc3)[C@H](OC)C2)CC(=O)[C@H](C)/C=C(\C)[C@@H](O)[C@@H](OC)C(=O)[C@H](C)C[C@H](C)/C=C/C=C/C=C/1C [Example 88] |  |  |  | < 3.16 nM | 3.16 to 31.6 nM | < 1 nM |
| CO[C@H]1C[C@@H]2CC[C@@H](C)[C@@](O)(O2)C(=O)C(=O)N2CCCC[C@H]2C(=O)O[C@H]([C@H](C)C[C@@H]2CC[C@@H](OC(=O)NCc3cnc(N4CCN(CCOCCOCCOCCOCCC(=O)N5CCc6cc(Cn7nc(-c8ccc9oc(N)nc9c8)c8c(N)ncnc87)ccc6C5)CC4)nc3)[C@H](OC)C2)C[C@@H](OC)[C@H](C)/C=C(\C)[C@@H](O)[C@@H](OC)C(=O)[C@H](C)C[C@H](C)/C=C/C=C/C=C/1C [Example 89] |  |  |  | < 3.16 nM | > 1000 nM | < 1 nM |
| CO[C@H]1C[C@@H]2CC[C@@H](C)[C@@](O)(O2)C(=O)C(=O)N2CCCC[C@H]2C(=O)O[C@H]([C@H](C)C[C@@H]2CC[C@@H](OC(=O)NCc3cnc(N4CCN(CCOCCOCCOCCOCCC(=O)NCCCCn5nc(-c6ccc7oc(N)nc7c6)c6c(N)ncnc65)CC4)nc3)[C@H](OC)C2)C[C@@H](OC)[C@H](C)/C=C(\C)[C@@H](O)[C@@H](OC)C(=O)[C@H](C)C[C@H](C)/C=C/C=C/C=C/1C [Example 90] |  |  |  | > 1000 nM | > 1000 nM | < 1 nM |
| CO[C@H]1C[C@@H]2CC[C@@H](C)[C@@](O)(O2)C(=O)C(=O)N2CCCC[C@H]2C(=O)O[C@H]([C@H](C)C[C@@H]2CC[C@@H](OC(=O)NCc3cnc(N4CCN(C(=O)CN(C)CC(=O)NCCOCCOCCC(=O)N5CCc6cc(Cn7nc(-c8ccc9oc(N)nc9c8)c8c(N)ncnc87)ccc6C5)CC4)nc3)[C@H](OC)C2)C[C@@H](OC)[C@H](C)/C=C(\C)[C@@H](O)[C@@H](OC)C(=O)[C@H](C)C[C@H](C)/C=C/C=C/C=C/1C [Example 91] |  |  |  | < 3.16 nM | 3.16 to 31.6 nM | < 1 nM |

From patent publication US10980889B1 (Revolution Medicines, Inc., priority 2018, dated 2021)
